Results reported in the kinase profiling compilation of Christmann-Franck et al. (2016).
pIC50, pKd: −log10 of the molar value.

How the values were obtained:
CDK7 (human) = CDK7 (human) (UniProt P50613); assay: KINOMEscan competition binding; conditions: compound 10.0 µM
DYRK1B (human) = DYRK1B (human) (UniProt Q9Y463); assay: KINOMEscan competition binding; conditions: compound 10.0 µM
MAPK4 (human) = MAPK4 (human) (UniProt P31152); assay: KINOMEscan competition binding; conditions: compound 10.0 µM
MARK4 (human) = MARK4 (human) (UniProt Q96L34); assay: KINOMEscan competition binding; conditions: compound 10.0 µM
RPS6KA5 KD1 (human) = RPS6KA5 KD1 (human) (UniProt O75582); assay: KINOMEscan competition binding; conditions: compound 10.0 µM
EPHA4 (human) = EPHA4 (human) (UniProt P54764); assay: KINOMEscan competition binding; conditions: compound 10.0 µM
CSNK1A1L (human) = CSNK1A1L (human) (UniProt Q8N752); assay: KINOMEscan competition binding; conditions: compound 10.0 µM
[1] = system: PIK3CA (human), P42336 [I800L]; assay: KINOMEscan competition binding; conditions: compound 10.0 µM
[2] = system: PIK3CA (human), P42336 [C420R]; assay: KINOMEscan competition binding; conditions: compound 10.0 µM
PLK3 (human) = PLK3 (human) (UniProt Q9H4B4); assay: KINOMEscan competition binding; conditions: compound 10.0 µM
[3] = system: FLT3 (human), P36888 [R834Q]; assay: KINOMEscan competition binding; conditions: compound 10.0 µM
TEK (human) = TEK (human) (UniProt Q02763); assay: KINOMEscan competition binding; conditions: compound 10.0 µM
ROS1 (human) = ROS1 (human) (UniProt P08922); assay: KINOMEscan competition binding; conditions: compound 10.0 µM
MAP3K4 (human) = MAP3K4 (human) (UniProt Q9Y6R4); assay: KINOMEscan competition binding; conditions: compound 10.0 µM
MAP3K12 (human) = MAP3K12 (human) (UniProt Q12852); assay: KINOMEscan competition binding; conditions: compound 10.0 µM
CASK (human) = CASK (human) (UniProt O14936); assay: KINOMEscan competition binding; conditions: compound 10.0 µM
GRK7 (human) = GRK7 (human) (UniProt Q8WTQ7); assay: KINOMEscan competition binding; conditions: compound 10.0 µM
PAK3 (human) = PAK3 (human) (UniProt O75914); assay: KINOMEscan competition binding; conditions: compound 10.0 µM
DCLK2 (human) = DCLK2 (human) (UniProt Q8N568); assay: KINOMEscan competition binding
MAPK3 (human) = MAPK3 (human) (UniProt P27361); assay: KINOMEscan competition binding; conditions: compound 10.0 µM
MAP2K4 (human) = MAP2K4 (human) (UniProt P45985); assay: KINOMEscan competition binding; conditions: compound 10.0 µM
[4] = system: PIK3CA (human), P42336 [E545K]; assay: KINOMEscan competition binding; conditions: compound 10.0 µM
CDK4 CCND3 (human) = CDK4 CCND3 (human) (UniProt P11802+P30281); assay: KINOMEscan competition binding; conditions: compound 10.0 µM
TSSK1B (human) = TSSK1B (human) (UniProt Q9BXA7); assay: KINOMEscan competition binding; conditions: compound 10.0 µM
MAP3K10 (human) = MAP3K10 (human) (UniProt Q02779); assay: KINOMEscan competition binding; conditions: compound 10.0 µM
CDK11B (human) = CDK11B (human) (UniProt P21127); assay: KINOMEscan competition binding; conditions: compound 10.0 µM
CHUK (human) = CHUK (human) (UniProt O15111); assay: KINOMEscan competition binding; conditions: compound 10.0 µM
LTK (human) = LTK (human) (UniProt P29376); assay: KINOMEscan competition binding; conditions: compound 10.0 µM
BLK (human) = BLK (human) (UniProt P51451); assay: KINOMEscan competition binding; conditions: compound 10.0 µM
EGFR (human) = EGFR (human) (UniProt P00533); assay: KINOMEscan competition binding; conditions: compound 10.0 µM
MARK2 (human) = MARK2 (human) (UniProt Q7KZI7); assay: radiometric filter-binding kinase assay
IKBKE (human) = IKBKE (human) (UniProt Q14164); assay: radiometric filter-binding kinase assay
MAP2K1 (human) = MAP2K1 (human) (UniProt Q02750); assay: radiometric filter-binding kinase assay
NUAK1 (human) = NUAK1 (human) (UniProt O60285); assay: radiometric filter-binding kinase assay
MKNK2 (human) = MKNK2 (human) (UniProt Q9HBH9); assay: radiometric filter-binding kinase assay
RPS6KA1 KD1 KD2 (human) = RPS6KA1 KD1 KD2 (human) (UniProt Q15418); assay: radiometric filter-binding kinase assay
HIPK3 (human) = HIPK3 (human) (UniProt Q9H422); assay: radiometric filter-binding kinase assay
AURKB (human) = AURKB (human) (UniProt Q96GD4); assay: radiometric filter-binding kinase assay
Sequence of AURKB (human) (Q96GD4 whole entry, looked up): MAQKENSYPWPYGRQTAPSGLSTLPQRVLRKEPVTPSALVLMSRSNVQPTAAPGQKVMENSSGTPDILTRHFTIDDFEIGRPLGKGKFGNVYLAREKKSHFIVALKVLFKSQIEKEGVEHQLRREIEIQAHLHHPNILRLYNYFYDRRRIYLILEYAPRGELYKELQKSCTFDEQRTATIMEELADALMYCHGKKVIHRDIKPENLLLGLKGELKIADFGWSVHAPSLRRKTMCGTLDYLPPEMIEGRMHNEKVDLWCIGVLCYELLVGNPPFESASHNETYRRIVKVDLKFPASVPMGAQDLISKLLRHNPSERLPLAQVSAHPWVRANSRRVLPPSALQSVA

Sequence of NUAK1 (human) (O60285 whole entry, looked up): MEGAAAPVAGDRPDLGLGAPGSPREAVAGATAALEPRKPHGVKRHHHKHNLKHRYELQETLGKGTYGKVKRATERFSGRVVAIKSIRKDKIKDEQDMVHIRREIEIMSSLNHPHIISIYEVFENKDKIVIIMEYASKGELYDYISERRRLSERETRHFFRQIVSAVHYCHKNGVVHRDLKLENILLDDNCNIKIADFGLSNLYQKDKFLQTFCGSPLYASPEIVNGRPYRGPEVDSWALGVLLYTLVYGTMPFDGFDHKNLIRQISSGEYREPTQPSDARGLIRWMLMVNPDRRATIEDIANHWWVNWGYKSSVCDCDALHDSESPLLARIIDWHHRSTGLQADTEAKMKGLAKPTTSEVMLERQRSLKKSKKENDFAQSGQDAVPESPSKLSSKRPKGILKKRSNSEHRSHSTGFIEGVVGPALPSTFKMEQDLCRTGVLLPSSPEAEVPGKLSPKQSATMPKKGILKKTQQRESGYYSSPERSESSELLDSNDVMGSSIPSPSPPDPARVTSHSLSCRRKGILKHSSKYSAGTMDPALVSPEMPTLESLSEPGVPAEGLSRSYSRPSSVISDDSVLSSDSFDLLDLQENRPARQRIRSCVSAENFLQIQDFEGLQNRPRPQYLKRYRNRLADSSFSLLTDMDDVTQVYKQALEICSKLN
Sequence of MKNK2 (human) (Q9HBH9 whole entry, looked up): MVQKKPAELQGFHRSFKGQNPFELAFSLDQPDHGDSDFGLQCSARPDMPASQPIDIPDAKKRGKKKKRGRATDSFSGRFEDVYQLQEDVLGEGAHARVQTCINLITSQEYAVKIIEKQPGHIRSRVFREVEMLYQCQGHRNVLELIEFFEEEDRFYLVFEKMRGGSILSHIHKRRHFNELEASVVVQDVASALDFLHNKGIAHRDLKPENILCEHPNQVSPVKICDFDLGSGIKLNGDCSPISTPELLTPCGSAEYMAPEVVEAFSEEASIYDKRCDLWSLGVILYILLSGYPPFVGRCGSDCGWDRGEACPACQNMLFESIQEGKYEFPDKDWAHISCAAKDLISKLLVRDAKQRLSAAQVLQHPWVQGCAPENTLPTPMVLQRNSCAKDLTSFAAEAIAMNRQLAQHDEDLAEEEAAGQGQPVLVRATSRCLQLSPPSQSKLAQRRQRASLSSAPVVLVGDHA
Sequence of DCLK2 (human) (Q8N568 whole entry, looked up): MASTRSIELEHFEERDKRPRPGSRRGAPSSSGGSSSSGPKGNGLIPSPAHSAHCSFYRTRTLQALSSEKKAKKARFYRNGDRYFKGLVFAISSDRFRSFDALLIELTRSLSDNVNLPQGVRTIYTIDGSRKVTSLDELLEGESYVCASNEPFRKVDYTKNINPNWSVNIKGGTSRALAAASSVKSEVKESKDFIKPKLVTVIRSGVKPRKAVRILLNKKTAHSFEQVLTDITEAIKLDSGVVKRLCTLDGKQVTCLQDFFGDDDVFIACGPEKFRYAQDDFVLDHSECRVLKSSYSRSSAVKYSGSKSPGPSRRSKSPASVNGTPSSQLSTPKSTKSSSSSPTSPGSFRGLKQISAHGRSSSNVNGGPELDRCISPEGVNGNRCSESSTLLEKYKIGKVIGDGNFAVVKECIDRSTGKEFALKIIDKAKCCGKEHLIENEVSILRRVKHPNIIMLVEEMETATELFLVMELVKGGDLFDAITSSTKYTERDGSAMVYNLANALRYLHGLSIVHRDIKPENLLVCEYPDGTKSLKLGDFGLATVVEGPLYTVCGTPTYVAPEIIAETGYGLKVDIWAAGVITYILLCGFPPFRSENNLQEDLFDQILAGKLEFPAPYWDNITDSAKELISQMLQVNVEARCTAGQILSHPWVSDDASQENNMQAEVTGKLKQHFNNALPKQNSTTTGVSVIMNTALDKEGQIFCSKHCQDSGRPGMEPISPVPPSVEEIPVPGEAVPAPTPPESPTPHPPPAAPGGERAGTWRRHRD
Sequence of RPS6KA1 KD1 KD2 (human) (Q15418 whole entry, looked up): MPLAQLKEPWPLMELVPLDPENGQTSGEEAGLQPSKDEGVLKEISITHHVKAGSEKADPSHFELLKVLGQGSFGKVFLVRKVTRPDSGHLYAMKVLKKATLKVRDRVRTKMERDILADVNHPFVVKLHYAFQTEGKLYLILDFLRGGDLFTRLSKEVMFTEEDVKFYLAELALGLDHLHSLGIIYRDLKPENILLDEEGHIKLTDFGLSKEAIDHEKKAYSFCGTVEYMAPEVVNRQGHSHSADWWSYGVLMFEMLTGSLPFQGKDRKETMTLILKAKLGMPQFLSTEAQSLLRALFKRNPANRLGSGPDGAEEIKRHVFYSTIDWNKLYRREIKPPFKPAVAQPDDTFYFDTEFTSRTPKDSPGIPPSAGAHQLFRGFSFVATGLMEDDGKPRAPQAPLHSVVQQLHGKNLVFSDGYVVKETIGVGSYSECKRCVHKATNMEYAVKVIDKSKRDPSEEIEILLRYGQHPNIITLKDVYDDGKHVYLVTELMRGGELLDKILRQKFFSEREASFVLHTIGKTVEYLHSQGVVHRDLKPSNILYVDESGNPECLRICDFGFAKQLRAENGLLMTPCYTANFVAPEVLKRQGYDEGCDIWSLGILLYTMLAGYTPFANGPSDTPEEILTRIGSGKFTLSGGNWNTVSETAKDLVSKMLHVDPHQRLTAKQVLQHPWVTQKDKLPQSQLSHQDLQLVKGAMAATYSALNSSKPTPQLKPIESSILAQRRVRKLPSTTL
Sequence of MARK2 (human) (Q7KZI7 whole entry, looked up): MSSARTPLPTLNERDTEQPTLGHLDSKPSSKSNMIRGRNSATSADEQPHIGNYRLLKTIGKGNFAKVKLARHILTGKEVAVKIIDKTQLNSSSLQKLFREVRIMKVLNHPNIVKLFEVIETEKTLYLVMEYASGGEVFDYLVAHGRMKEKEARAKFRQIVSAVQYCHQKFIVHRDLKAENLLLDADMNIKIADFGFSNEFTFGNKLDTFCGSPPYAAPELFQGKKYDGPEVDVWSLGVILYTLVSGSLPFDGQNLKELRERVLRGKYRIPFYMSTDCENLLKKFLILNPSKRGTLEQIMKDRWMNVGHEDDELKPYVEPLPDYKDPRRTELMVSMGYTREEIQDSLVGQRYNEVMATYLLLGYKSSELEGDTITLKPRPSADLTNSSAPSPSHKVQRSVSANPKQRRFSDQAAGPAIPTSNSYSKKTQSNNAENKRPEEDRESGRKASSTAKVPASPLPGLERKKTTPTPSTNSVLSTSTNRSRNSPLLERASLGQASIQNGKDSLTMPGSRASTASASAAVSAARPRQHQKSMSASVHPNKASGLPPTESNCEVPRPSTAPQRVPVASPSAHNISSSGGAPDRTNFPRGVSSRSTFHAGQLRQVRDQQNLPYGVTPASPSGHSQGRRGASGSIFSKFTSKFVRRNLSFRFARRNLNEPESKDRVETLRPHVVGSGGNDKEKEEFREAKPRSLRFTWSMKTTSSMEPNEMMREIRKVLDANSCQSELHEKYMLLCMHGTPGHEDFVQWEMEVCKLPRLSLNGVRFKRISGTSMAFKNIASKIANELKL
Sequence of IKBKE (human) (Q14164 whole entry, looked up): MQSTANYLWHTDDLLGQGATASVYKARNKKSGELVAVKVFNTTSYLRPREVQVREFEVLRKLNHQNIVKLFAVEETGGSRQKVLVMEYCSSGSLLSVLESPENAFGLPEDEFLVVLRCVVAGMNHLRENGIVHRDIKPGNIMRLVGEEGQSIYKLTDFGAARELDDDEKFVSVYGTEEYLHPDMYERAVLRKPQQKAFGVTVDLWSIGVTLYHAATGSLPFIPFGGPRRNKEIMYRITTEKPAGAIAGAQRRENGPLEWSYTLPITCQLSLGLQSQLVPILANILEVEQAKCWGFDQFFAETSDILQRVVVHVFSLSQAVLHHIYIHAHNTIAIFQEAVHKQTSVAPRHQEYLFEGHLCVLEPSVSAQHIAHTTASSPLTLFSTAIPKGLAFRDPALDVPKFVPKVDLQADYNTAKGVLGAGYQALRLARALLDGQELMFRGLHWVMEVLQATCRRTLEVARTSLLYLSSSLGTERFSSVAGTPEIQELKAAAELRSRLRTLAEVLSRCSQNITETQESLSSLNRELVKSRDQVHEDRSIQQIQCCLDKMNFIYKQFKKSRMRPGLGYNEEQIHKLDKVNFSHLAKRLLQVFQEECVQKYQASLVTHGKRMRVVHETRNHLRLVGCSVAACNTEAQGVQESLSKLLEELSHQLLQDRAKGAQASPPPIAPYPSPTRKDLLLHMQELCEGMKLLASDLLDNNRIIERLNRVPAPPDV
Sequence of MAP2K1 (human) (Q02750 whole entry, looked up): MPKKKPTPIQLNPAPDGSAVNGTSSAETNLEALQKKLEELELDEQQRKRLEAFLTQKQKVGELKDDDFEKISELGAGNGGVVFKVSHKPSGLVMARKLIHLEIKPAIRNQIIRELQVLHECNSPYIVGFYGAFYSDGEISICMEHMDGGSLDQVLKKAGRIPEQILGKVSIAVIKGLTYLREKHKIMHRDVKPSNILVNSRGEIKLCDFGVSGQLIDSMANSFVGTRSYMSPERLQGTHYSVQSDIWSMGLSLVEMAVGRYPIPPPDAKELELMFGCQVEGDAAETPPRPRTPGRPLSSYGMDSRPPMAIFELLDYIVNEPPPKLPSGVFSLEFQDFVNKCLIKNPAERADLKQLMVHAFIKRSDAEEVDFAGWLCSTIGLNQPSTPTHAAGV

COc1cc(C(=O)N2CCC(N3CCN(C)CC3)CC2)ccc1Nc1ncc2c(n1)N(C)c1ccccc1C(=O)N2C
residual activity (CDK7 (human)): 86% | kinase still bound, per cent of control (DYRK1B (human)): 94% | kinase still bound, per cent of control (MAPK4 (human)): 100% | kinase still bound, per cent of control (MARK4 (human)): 78% | kinase still bound, per cent of control (RPS6KA5 KD1 (human)): 96% | kinase still bound, per cent of control (EPHA4 (human)): 89% | kinase still bound, per cent of control (CSNK1A1L (human)): 100% | kinase still bound, per cent of control [1]: 38% | kinase still bound, per cent of control [2]: 89% | kinase still bound, per cent of control (PLK3 (human)): 51% | kinase still bound, per cent of control [3]: 100% | kinase still bound, per cent of control (TEK (human)): 100% | kinase still bound, per cent of control (ROS1 (human)): 12% | kinase still bound, per cent of control (MAP3K4 (human)): 100% | residual activity (MAP3K12 (human)): 81% | kinase still bound, per cent of control (CASK (human)): 85% | kinase still bound, per cent of control (GRK7 (human)): 100% | kinase still bound, per cent of control (PAK3 (human)): 83% | pKd (DCLK2 (human)): 7.80 | kinase still bound, per cent of control (DCLK2 (human); compound 10.0 µM): 0.45% | kinase still bound, per cent of control (MAPK3 (human)): 100% | kinase still bound, per cent of control (MAP2K4 (human)): 100% | kinase still bound, per cent of control [4]: 100% | residual activity (CDK4 CCND3 (human)): 100% | kinase still bound, per cent of control (TSSK1B (human)): 60% | kinase still bound, per cent of control (MAP3K10 (human)): 100% | residual activity (CDK11B (human)): 84% | kinase still bound, per cent of control (CHUK (human)): 100% | kinase still bound, per cent of control (LTK (human)): 32% | kinase still bound, per cent of control (BLK (human)): 97% | kinase still bound, per cent of control (EGFR (human)): 84% | residual activity (MARK2 (human); compound 1.0 µM): 62% | residual activity (MARK2 (human); compound 10.0 µM): 72% | residual activity (IKBKE (human); compound 1.0 µM): 76% | residual activity (IKBKE (human); compound 10.0 µM): 88% | residual activity (MAP2K1 (human); compound 1.0 µM): 94% | residual activity (MAP2K1 (human); compound 10.0 µM): 86% | pIC50 (NUAK1 (human)): 5.30 | residual activity (NUAK1 (human); compound 1.0 µM): 50% | residual activity (NUAK1 (human); compound 10.0 µM): 19% | pIC50 (MKNK2 (human)): 5.14 | residual activity (MKNK2 (human); compound 1.0 µM): 72% | residual activity (MKNK2 (human); compound 10.0 µM): 22% | residual activity (RPS6KA1 KD1 KD2 (human); compound 1.0 µM): 97% | residual activity (RPS6KA1 KD1 KD2 (human); compound 10.0 µM): 367% | residual activity (HIPK3 (human); compound 1.0 µM): 90% | residual activity (HIPK3 (human); compound 10.0 µM): 102% | pIC50 (AURKB (human)): 5.96 | residual activity (AURKB (human); compound 1.0 µM): 64% | residual activity (AURKB (human); compound 10.0 µM): 28%
